One data set concerns normal Wistar rats. Nature of the data set: Acute and subchronic anorectic effects, normal Wistar rats. It is filed as in vivo, rat. The conditions noted are these: lowered from 1.58±0.1, 100 μg/kg s.c. twice daily.
The test system of data set [1] is Wistar rats subjected to neonatal monosodium glutamate treatment (MSG). Nature of the data set: Acute and subchronic anorectic effects, model of hypothalamic obesity (MSG rats). It counts as in vivo, rat. The method, then:
Solutions were always made fresh approximately 1 hour prior to use and stored at 4° C. in sterile tubes.

The test system of data set [2] is male Zucker Diabetic Fatty fa/fa (ZDF) rat. Nature of the data set: Long-term treatment of male Zucker Diabetic Fatty fa/fa (ZDF) rats, model of Type 2 diabetes. It counts as in vivo. The note with it: for Free fatty acids / Total cholesterol: mean ± SEM. The source says: The male Zucker Diabetic Fatty fa/fa (ZDF) rat is a model of Type 2 diabetes. The rats are insulin resistant but normoglycemic from birth and they develop diabetes from about week 7 to week 10 of age. During the transitional period, the animals go through a state of impaired glucose tolerance. Although the animals are hyperinsulinemic before diabetes onset and during the early stages of diabetes, they later lose glucose-stimulated insulin secretion and finally become almost completely insulinopenic.
Animals were between 7 and 8 weeks old when dosing was initiated, and fed glucose levels were not different between the groups before dosing began. […] After 36 days of dosing, an oral glucose tolerance test was performed in the animals after an 11-hour fast. One g/kg of glucose was administered by oral gavage and subsequent measurements of blood glucose and plasma insulin were made.
In addition to the effects on blood glucose and insulin, we also studied the effects of long-term treatment on lipid parameters. Thus, at the termination of the study, non-fasted plasma measurements of total cholesterol, free fatty acids were performed.

Where [3] appears, read: 100 μg/kg s.c. twice daily, normal and MSG rats not distinguished.
Where [4] appears, read: initial effect, normalised within few days of treatment.
Where [5] appears, read: 150 μg/kg s.c. bi-daily, non-fasted plasma at termination.
Setting [6] is: group B, 30 μg/kg s.c. bi-daily, non-fasted plasma at termination.
Where [7] appears, read: group C, 150 μg/kg s.c. bi-daily, non-fasted plasma at termination.

Regarding “Arg^34, Lys^26(N^ε-(γ-Glu(N^α-hexadecanoyl)))-GLP-1(7-37) [GLP1]”, the “plasma levels of triglycerides” value in the data set on normal Wistar rats was found to be 1.21 ± 0.3 mM. In data set [1] (setting [3]), the body weight result is reported as “reduced” and the food intake result is listed as “inhibition”. Besides, in data set [1] (setting [4]), the diuresis entry is “increases” and the water intake result is listed as “Initial decreases”. The “plasma parameters of renal function” value in data set [1] (throughout the experiment) is “remained normal”. In data set [2] (setting [5]), the “free fatty acids, group C compared to group A (vehicle)” value is listed as “significant reduction” and the “total cholesterol, group C compared to group A (vehicle)” value is on record as “significant reduction”. The “blood glucose state during a normal 24-hour feeding schedule” value in data set [2] (group B, 30 μg/kg s.c. bi-daily, after 10 days of dosing) is “hyperglycemic”. In data set [2] (setting [6]), the Free fatty acids is listed as 0.29 ± 0.04 mM and the Total cholesterol was determined as 2.9 ± 0.1 mM. Besides, in data set [2] (group C, 150 μg/kg s.c. bi-daily, after 10 days of dosing), the “blood glucose levels during a normal 24-hour feeding schedule vs vehicle- and low-dose-treated animals” value was “significantly lower”. In addition, in data set [2] (group C, 150 μg/kg s.c. bi-daily, after 10 days of dosing, compared to initial measurements), the “blood glucose levels during a normal 24-hour feeding schedule” value is “unchanged”. Further, the “glycemic level in oral glucose tolerance test vs groups A and B” value in data set [2] (group C, 150 μg/kg s.c. bi-daily, after 36 days of dosing, 11-hour fast, 1 g/kg glucose by oral gavage) was “significantly lower”. Also, in data set [2] (setting [7]), the Free fatty acids is reported as 0.20 ± 0.02 mM and the Total cholesterol amounted to 2.2 ± 0.1 mM.

Values taken from patent US20080280815A1, “Lowering Serum Lipids” (Novo Nordisk A/S, priority 2000, published 2008).
